Results: PMC10146426, “Naturally Occurring Chalcones with Aggregation-Induced Emission Enhancement Characteristics” (Molecules, 2023)
Like-named read-outs stand apart in the source and are kept apart here.

How the values were obtained:
[1] = DPPH radical-scavenging activity assay; conditions: for DPPH Radical Scavenging (%) after 30 min / DPPH Radical Scavenging (%) after 60 min: mean ± SD
Protocol: 2,2-Diphenylpicrylhydrazyl (DPPH) was purchased from Sigma-Aldrich (Steinheim, Germany). DPPH radical-scavenging activity was determined according to the method described by Brand-Williams et al. using (+)-catechin (Sigma-Aldrich, Steinheim, Germany) as the positive control. The chalcone samples were previously dissolved in DMSO and MeOH at the molar concentration of 2 × 10^–3 M. The positive control sample was dissolved in DMSO at the same molar concentration. The DPPH stock solution was diluted 10× with methanol to obtain the concentration of 1 × 10^–4 M. The measurements: 70 μL of the sample was added to 4 mL of the DPPH solution, and the samples were left for 30 or 60 min at room temperature in the dark. The absorbance was recorded at 517 nm by s Varian Cary 50 spectrophotometer. The control was prepared as above without any sample.
DPPH free-radical scavenging activity was calculated using the following Formula (2):(2) Scavenging activity [%]=[Absorbance of control−Absorbance of test sample]/Absorbance control×100 where the absorbance of control is the absorbance of DPPH radicals in the absence of compounds, and the absorbance of the test sample is the absorbance in the presence of the studied compound.

[2] = target: T1, butyrylcholinesterase (BuChE, E.C. 3.1.1.8, from equine serum) (Equus caballus, UniProt P81908); assay: BuChE inhibition (Ellman method); type: biochemical
T1 construct: butyrylcholinesterase (BuChE, E.C. 3.1.1.8, from equine serum); purchased Sigma-Aldrich (Steinheim, Germany); host or cells: equine serum (natural source)
Protocol: (§1) The inhibitory activities against AChE and BuChE of the prepared compounds were performed by means of the method previously developed by Ellman et al. using neostigmine as the reference compound [68]. This is based on the reaction of released thiocholine to give a coloured product with a chromogenic reagent. Seven different concentrations of the compounds in the range 10^−9–10^−3 M were measured at 412 nm. All the assays were performed in the 0.1 M NaH2PO4/Na2HPO4 buffer (pH = 8) using the Varian Cary 50 spectrophotometer. 5,5′-Dithio-bis(2-nitrobenzoic acid) (DTNB) was used to measure the anti-AChE activity. […] Briefly, 140 µL of 0.1 mM sodium phosphate buffer (pH 8.0), 20 µL of DTNB, 20 µL of the assay solution and 20 µL of the AChE/BuChE solution were added and incubated for 15 min at 25 °C. The reaction was then initiated by adding 10 µL of acetylthiocholine iodide or butylthiocholine iodide. Yellow anion (2-nitro-5-thiobenzoic acid) formation was recorded at 412 nm for 10 min. It was determined by preparing an identical solution of the enzyme in the absence of tested compounds (as the control). Control and inhibitor readings were corrected with a blank read. All operations were repeated three times. The inhibition properties are reported as the IC50 values, which were determined graphically from the inhibition curves of log inhibitor concentration vs. the percentage of inhibition. The IC50 values represent the concentration of the inhibitor required for 50% inhibition of the enzyme.

[3] = target: T2, Acetylcholinesterase (AChE, E.C. 3.1.1.7, from human erythrocytes) (Homo sapiens, UniProt P22303); assay: AChE inhibition (Ellman method); type: biochemical
T2 construct: Acetylcholinesterase (AChE, E.C. 3.1.1.7, from human erythrocytes); purchased Sigma-Aldrich (Steinheim, Germany); host or cells: human erythrocytes (natural source)
Protocol: as §1

[4] = samples dissolved in DMSO (stock 2 × 10^−3 M), three experiments
[5] = samples dissolved in MeOH (stock 2 × 10^−3 M)
[6] = pH 8 phosphate buffer, 25 °C, n = 9, read-out: BuChE IC50 Mean ± SD
[7] = pH 8 phosphate buffer, 25 °C, n = 9, read-out: AChE IC50 Mean ± SD

T2 sequence (P22303 32-617 isoform P22303-2 limits assumed): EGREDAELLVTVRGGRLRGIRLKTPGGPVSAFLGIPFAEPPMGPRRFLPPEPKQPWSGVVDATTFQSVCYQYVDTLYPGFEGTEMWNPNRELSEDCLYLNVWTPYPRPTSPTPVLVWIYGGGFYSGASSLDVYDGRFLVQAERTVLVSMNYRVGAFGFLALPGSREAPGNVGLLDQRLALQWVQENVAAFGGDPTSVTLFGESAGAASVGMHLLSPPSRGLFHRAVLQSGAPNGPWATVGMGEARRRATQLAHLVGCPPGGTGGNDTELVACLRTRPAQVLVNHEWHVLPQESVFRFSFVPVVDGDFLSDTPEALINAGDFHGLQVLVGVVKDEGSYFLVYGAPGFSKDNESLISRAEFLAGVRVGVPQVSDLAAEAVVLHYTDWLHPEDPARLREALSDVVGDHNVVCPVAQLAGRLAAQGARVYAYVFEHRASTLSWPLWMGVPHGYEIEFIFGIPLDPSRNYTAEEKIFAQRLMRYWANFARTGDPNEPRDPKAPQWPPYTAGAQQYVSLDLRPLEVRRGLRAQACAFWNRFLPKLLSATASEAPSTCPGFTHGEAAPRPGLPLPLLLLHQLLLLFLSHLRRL
T1 sequence (P81908 whole entry): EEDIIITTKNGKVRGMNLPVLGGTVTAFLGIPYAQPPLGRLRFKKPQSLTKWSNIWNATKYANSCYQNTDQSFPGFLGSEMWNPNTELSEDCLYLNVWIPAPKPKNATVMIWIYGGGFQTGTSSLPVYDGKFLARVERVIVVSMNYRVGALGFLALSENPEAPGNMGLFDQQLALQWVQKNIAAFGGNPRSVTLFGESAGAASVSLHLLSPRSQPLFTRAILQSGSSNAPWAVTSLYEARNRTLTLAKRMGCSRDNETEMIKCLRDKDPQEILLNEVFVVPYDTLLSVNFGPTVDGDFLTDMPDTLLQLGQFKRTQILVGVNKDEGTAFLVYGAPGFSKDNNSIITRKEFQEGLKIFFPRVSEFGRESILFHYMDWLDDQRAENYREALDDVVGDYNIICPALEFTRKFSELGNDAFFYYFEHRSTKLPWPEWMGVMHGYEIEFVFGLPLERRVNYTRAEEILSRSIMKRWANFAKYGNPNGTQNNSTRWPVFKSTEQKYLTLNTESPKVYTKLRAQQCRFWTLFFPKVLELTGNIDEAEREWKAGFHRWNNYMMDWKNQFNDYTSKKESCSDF

SMILES | DPPH Radical Scavenging (%) after 30 min [1, 4] | IC50 [2] | DPPH Radical Scavenging (%) after 30 min [1, 5] | DPPH Radical Scavenging (%) after 60 min [1, 5] | IC50 [3] | IC50 [2, 6] | IC50 [3, 7] | inhibitory properties towards AChE ([3]; result in words) | DPPH Radical Scavenging (%) after 30 min ([1]; samples dissolved in DMSO (stock 2 × 10^−3 M), three experiments, listed as licochalcone A) | DPPH Radical Scavenging (%) after 60 min ([1]; samples dissolved in MeOH (stock 2 × 10^−3 M), listed as licochalcone A) | DPPH radical scavenging (%) ([1]; solvent and time not stated)
Oc1cc(O)c2c(c1)O[C@H](c1ccc(O)c(O)c1)[C@@H](O)C2 [(+)-catechin, reference compound] | 94.14 ± 0.44% | – | – | – | – | – | – | – | – | – | –
COc1cc(O)cc(O)c1C(=O)/C=C/c1ccccc1 [CA, cardamonin] | 2.09 ± 0.05% | 75.29 ± 0.41 µM | 0.79 ± 0.07% | 1.33 ± 0.14% | 67.87 ± 0.01 µM | – | – | – | – | – | –
COc1ccc(/C=C/C(=O)c2c(O)cc(OC)cc2OC)cc1 [HCH, 2′-hydroxy-4,4′,6′-trimethoxychalcone] | 2.09 ± 0.03% | – | 0.30 ± 0.06% | 0.35 ± 0.05% | – | 76.5 ± 3.03 µM | > 100 µM | did not show any inhibitory properties | – | – | –
CC(C)=CCc1c(O)ccc(C(=O)/C=C/c2ccc(O)cc2)c1O [IBC, isobavachalcone] | 2.36 ± 0.07% | – | 0.61 ± 0.01% | 1.03 ± 0.06% | – | 43.05 ± 0.16 µM | 35.48 ± 0.01 µM | – | – | – | –
C=CC(C)(C)c1cc(/C=C/C(=O)c2ccc(O)cc2)c(OC)cc1O [LIC, licochalcone A] | 29.24 ± 0.70% | 42.28 ± 0.06 µM | 26.50 ± 0.92% | 29.60 ± 0.98% | 23.41 ± 0.02 µM | – | – | – | ~ 29% | ~ 29% | 29%
CN(C)C(=O)Oc1cccc([N+](C)(C)C)c1 [Neostygmine, neostigmine bromide, reference compound] | – | 0.03 ± 0.01 µM | – | – | – | – | – | – | – | – | –
COc1cc(O)c(CC=C(C)C)c(O)c1C(=O)/C=C/c1ccc(O)cc1 [XN, xanthohumol] | 7.99 ± 0.05% | – | 4.34 ± 0.05% | 6.72 ± 0.30% | – | 65.79 ± 0.34 µM | 40.81 ± 0.04 µM | – | – | – | –
